Results: publication PMC4772543, “Immune responses to Mycobacterial heat shock protein 70 accompany self-reactivity to human BiP in rheumatoid arthritis” (Scientific Reports, 2016)

Assays:
HLA-DR4 transgenic mice = assay: Immunization of HLA-DR4 transgenic mice with MycHSP70, serum antibody titers by ELISA; type: in vivo, mouse; settings: 100 μg MycHSP70 with complete Freund's adjuvant subcutaneously
Procedure: (§1) Figure 5 Immunization of HLA-DR4 transgenic mice with MycHSP70. (A) HLA-DR4 transgenic mice were immunized with recombinant MycHSP70. Serum anti-MycHSP70 and anti-mouse BiP antibody titers were measured in the 21 days following the first immunization. (B) Splenic CD4+ T cell proliferation from MycHSP70-immunized HLA-DR4 transgenic mice in response to MycHSP70_287–306 and BiP336–355 epitopes. Proliferation was determined by the incorporation of [3]-H thymidine. Data were representative of at least three independent trials. ***p < 0.001.
Serum antibodies were measured by ELISA as previously reported. Briefly, 96-well plates (Thermo Fisher Scientific) were coated with 5 μg/mL of each antigen and dissolved in 0.1 M NaHCO3. […]
(§2) HLA-DR4 transgenic mice were obtained from Taconic, immunized twice (day 0, 14) with 100 μg of MycHSP70 with the same volume of complete Freund’s adjuvant subcutaneously into the tails, and sacrificed on day 21. MACS-purified CD4^+ T cells (1 × 10^5/mL) were cultured with irradiated splenocytes (1 × 10^6/mL) and an antigen (10 μg/mL) in RPMI 1640 medium supplemented with 5% FCS, 2 mM L-glutamine, 100 U/ml penicillin, 100 μg/ml streptomycin, and 5 × 10^−5 M 2-mercaptoethanol in a humidified incubator at 37 °C, 5% CO2, for 72 h. ^3H-thymidine was pulsed to each well, cells were harvested after an 18-hour incubation, and analyzed with a scintillation counter.

[1] = test system: CD4+ T cells from MycHSP70-immunized HLA-DR4 transgenic mice; assay: Splenic CD4+ T cell proliferation from MycHSP70-immunized HLA-DR4 transgenic mice in response to epitopes; type: cell-based, mouse; settings: antigen 10 μg/mL, 72 h, irradiated splenocytes, 3H-thymidine
Procedure: as §1, §2

T cells in RA = settings: cited from earlier work
Text: MycHSP70 and BiP share 50% of their amino acid sequences, and MycHSP70_287–306 is located at a position corresponding to that of the BiP-derived HLA-DR4 effector epitope. We previously identified two major BiP-derived HLA-DR4 epitopes in RA. […] MycHSP70_287–306 strongly induces proliferation and is regarded as an effector epitope. MycHSP70_287–306 and BiP336–355 share 50% of the amino acids in their core sequences, which bind HLA-DR pockets. They also share the P4V residue, whi ...

MycHSP70: recombinant Mycobacterial heat shock protein 70 (NCBI GenBank AF2122/97)
serum antibody titers to MycHSP70 (HLA-DR4 transgenic mice; day 0 and 14, serum day 21): elevation | serum antibody titers to BiP (HLA-DR4 transgenic mice; day 0 and 14, serum day 21, anti-mouse BiP): elevation

RSTMKPVQKVLEDSDLKKSD [BiP336–355, reference compound]
CD4+ T cell proliferation in response to peptide [1]: significant proliferation | T cell type recognizing the BiP-derived HLA-DR4 epitope (T cells in RA): recognized by effector T cells
